Reference: ChEMBL document CHEMBL4028827, “Discovery of indazole aldosterone synthase (CYP11B2) inhibitors as potential treatments for hypertension” (Bioorg Med Chem Lett, 2017)
pIC50: −log10 of the molar value.

Columns and labels:
[1] = Half life in Sprague-Dawley rat at 1 mg/kg, iv or 2 mg/kg, po administered via gavage by LC-MS/MS analysis; assay type: ADME, organism-based; details: in vivo
[2] = Volume of distribution in Sprague-Dawley rat at 1 mg/kg, iv or 2 mg/kg, po administered via gavage by LC-MS/MS analysis; assay type: ADME, organism-based; details: in vivo
[3] = molecular target: T1, Cytochrome P450 11B1, mitochondrial (Homo sapiens, UniProt P15538); assay: Inhibition of human CYP11B1-8C7 expressed in Chinese hamster V79 cells using 11-deoxycortisol as substrate preincubated for 1 hr followed by substrate addition measured for 3 hrs by HTRF assay; assay type: ADME, cell-based
T1 sequence (P15538 whole entry): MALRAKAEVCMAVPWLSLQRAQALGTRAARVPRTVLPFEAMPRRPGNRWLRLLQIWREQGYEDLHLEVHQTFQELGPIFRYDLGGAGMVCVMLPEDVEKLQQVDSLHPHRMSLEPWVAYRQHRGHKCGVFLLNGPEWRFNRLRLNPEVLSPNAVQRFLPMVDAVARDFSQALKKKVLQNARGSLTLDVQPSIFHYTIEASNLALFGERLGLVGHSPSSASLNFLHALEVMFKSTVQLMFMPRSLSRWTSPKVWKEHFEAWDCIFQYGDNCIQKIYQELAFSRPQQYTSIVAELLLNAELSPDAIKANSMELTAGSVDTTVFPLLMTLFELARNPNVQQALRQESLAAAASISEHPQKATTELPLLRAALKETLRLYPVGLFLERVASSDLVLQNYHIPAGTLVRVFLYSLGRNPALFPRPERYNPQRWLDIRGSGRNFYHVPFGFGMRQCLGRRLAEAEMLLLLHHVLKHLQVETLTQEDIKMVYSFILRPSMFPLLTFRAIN

[4] = molecular target: T2, Cytochrome P450 11B2, mitochondrial (Homo sapiens, UniProt P19099); assay: Inhibition of human CYP11B2-CLE9 expressed in Chinese hamster V79 cells using 11-deoxycorticosterone as substrate preincubated for 1 hr followed by substrate addition measured for 3 hrs by HTRF assay; assay type: cell-based
T2 sequence (P19099 whole entry): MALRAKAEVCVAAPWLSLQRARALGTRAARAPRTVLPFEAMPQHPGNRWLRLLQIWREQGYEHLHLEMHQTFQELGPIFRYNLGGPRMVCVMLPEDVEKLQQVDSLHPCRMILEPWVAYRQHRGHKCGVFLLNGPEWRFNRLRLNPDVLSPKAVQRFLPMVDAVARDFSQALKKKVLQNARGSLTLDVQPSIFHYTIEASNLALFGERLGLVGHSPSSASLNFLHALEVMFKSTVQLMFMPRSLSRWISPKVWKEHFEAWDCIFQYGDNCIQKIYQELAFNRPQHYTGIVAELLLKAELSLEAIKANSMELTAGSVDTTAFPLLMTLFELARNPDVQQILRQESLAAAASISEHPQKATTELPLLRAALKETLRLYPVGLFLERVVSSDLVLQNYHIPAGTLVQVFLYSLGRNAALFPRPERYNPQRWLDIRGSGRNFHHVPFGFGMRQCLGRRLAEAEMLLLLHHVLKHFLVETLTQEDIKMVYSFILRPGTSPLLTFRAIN

- half-life [1]: 7.6 h
- Vd [2]: 6.3 L/kg
- pIC50 [3]: 7.01
- pIC50 [4]: 8.65 to 8.66
Structure (SMILES): CC(C)(O)c1cncc(-n2ncc3c(C(F)(F)F)cccc32)c1
